From patent publication US20250380696A1, “METHOD FOR CONTROLLING UNDESIRED PLANTS AND PROMOTING GROWTH OF USEFUL PLANTS” (ISHIHARA SANGYO KAISHA, LTD., priority 2022, published 2025)

Assays:
Assay type in all cases: in vivo
[1] = system: soybean (cultivar: Enrei); test: (24) Plant growth promotion effect test (soybean), undesired plants not sown; details: 48th day after the sowing, above-ground part
Text: Upland soil was put in a 1/500,000 hectare pot, and a water-based suspension containing tiafenacil as the active ingredient, prepared by a conventional method for preparing a water-based suspension, and an emulsifiable concentrate containing S-metolachlor as the active ingredient (tradename: Dual Gold, manufactured by Syngenta), a wettable powder containing metribuzin as the active ingredient (tradename: SENCOR wettable powder, manufactured by Bayer Crop Science), water dispersible granules containing pyroxasulfone as the active ingredient (tradename: Sakura, manufactured by Bayer Crop Science), a wettable powder containing tri-allate as the active ingredient, prepared by a conventional method for preparing a wettable powder, an emulsifiable concentrate containing pethoxamid as the active ingredient (tradename: Successor 600, manufactured by Stähler Suisse SA) or an emulsifiable concentrate containing dimethenamid-P as the active ingredient (tradename: Fieldstar P emulsifiable concentrate, manufactured by BASF) were diluted with water (in an amount corresponding to 200 liter per hectare) containing 0.5 vol % of an agricultural spreader (tradename: Destiny HC, manufactured by Winfield Solutions, LLC.) and sprayed by a small spray gun (model: W-101-132G, manufactured by ANEST IWATA Corporation). Seeds of soybean (cultivar: Enrei, manufactured by Asahi Noen Seed Co., Ltd.) were sown in the pot after spraying. On the 48th day after the sowing, the above-ground part of the soybean was reaped, and its weight was measured to obtain the total weight.

[2] = system: soybean (cultivar: Enrei); test: (23) Plant growth promotion effect test (soybean), Italian ryegrass sown, seed weight; details: 97th day after the sowing
Text: Upland soil was put in a 1/200,000 hectare pot, and seeds of Italian ryegrass (Lolium multiflorum) were sown. When the Italian ryegrass reached 2.5 to 3.0 leaf stage, a water-based suspension containing tiafenacil as the active ingredient, prepared by a conventional method for preparing a water-based suspension, and an emulsifiable concentrate containing S-metolachlor as the active ingredient (tradename: Dual Gold, manufactured by Syngenta), a wettable powder containing metribuzin as the active ingredient (tradename: SENCOR wettable powder, manufactured by Bayer Crop Science), water dispersible granules containing pyroxasulfone as the active ingredient (tradename: Sakura, manufactured by Bayer Crop Science), a wettable powder containing tri-allate as the active ingredient, prepared by a conventional method for preparing a wettable powder, an emulsifiable concentrate containing pethoxamid as the active ingredient (tradename: Successor 600, manufactured by Stähler Suisse SA) or an emulsifiable concentrate containing dimethenamid-P as the active ingredient (tradename: Fieldstar P emulsifiable concentrate, manufactured by BASF) were diluted with water (in an amount corresponding to 200 liter per hectare) containing 0.5 vol % of an agricultural spreader (tradename: Destiny HC, manufactured by Winfield Solutions, LLC.) and sprayed by a small spray gun (model: W-101-132G, manufactured by ANEST IWATA Corporation). Seeds of soybean (cultivar: Enrei, manufactured by Asahi Noen Seed Co., Ltd.) were sown in the pot after spraying and the soybean was cultivated. On the 97th day after the sowing, seeds were collected from the grown soybean, and their weight was measured to obtain the total weight.

[3] = system: Italian ryegrass (Lolium multiflorum); test: (5) Herbicidal effect test, pot, spray at 3.0 to 3.3 leaf stage; details: 6th day after spraying
Text: [formula] • X: growth inhibition rate when treated with α (g/ha) of compound A, • Y: growth inhibition rate when treated with β (g/ha) of compound B, • E: growth inhibition rate expected when treated with α (g/ha) of compound A and β (g/ha) of compound B (expected value).
Upland soil was put in a 1/1,000,000 hectare pot, and seeds of Italian ryegrass (Lolium multiflorum) were sown. When the Italian ryegrass reached 3.0 to 3.3 leaf stage, a water-based suspension containing tiafenacil as the active ingredient, prepared by a conventional method for preparing a water-based suspension, and a wettable powder containing metribuzin as the active ingredient (tradename: SENCOR wettable powder, manufactured by Bayer Crop Science), water dispersible granules containing pyroxasulfone as the active ingredient (tradename: Sakura, manufactured by Bayer Crop Science) or a wettable powder containing tri-allate as the active ingredient, prepared by a conventional method for preparing a wettable powder, were diluted with water (in an amount corresponding to 200 liter per hectare) containing 0.5 vol % of an agricultural spreader (tradename: Destiny HC, manufactured by Winfield Solutions, LLC.) and sprayed by a small spray gun (model: W-101-132G, manufactured by ANEST IWATA Corporation). On the 6th day after spraying, the state of growth of the Italian ryegrass was visually observed, and the growth inhibition rate (%) was obtained in accordance with the evaluation standards described in the above (1) herbicidal effect test, and the results are shown in Table 5. Further, the expected value of the growth inhibition rate (%) was calculated in accordance with the Colby's formula described in the above (1) herbicidal effect test, and the results are also shown in Table 5.

[4] = system: forage corn (cultivar: SNOW DENT OTOHA); test: (19) Plant growth promotion effect test (corn), Italian ryegrass sown; details: 21st day after the sowing, above-ground part
Text: Upland soil was put in a 1/1,000,000 hectare pot, and seeds of Italian ryegrass (Lolium multiflorum) were sown. When the Italian ryegrass reached 3.2 to 3.7 leaf stage, a water-based suspension containing tiafenacil as the active ingredient, prepared by a conventional method for preparing a water-based suspension, and a wettable powder containing tri-allate as the active ingredient, prepared by a conventional method for preparing a wettable powder or an emulsifiable concentrate containing pethoxamid as the active ingredient (tradename: Successor 600, manufactured by Stähler Suisse SA) were diluted with water (in an amount corresponding to 200 liter per hectare) containing 0.5 vol % of an agricultural spreader (tradename: Destiny HC, manufactured by Winfield Solutions, LLC.) and sprayed by a small spray gun (model: W-101-132G, manufactured by ANEST IWATA Corporation). Seeds of forage corn (cultivar: SNOW DENT OTOHA, manufactured by SNOW BRAND SEED Co., Ltd.) were sown in the pot after spraying. On the 21st day after the sowing, the above-ground part of the forage corn was reaped, and its weight was measured to obtain the raw weight.

In the case of CCc1cccc(C)c1N(C(=O)CCl)[C@@H](C)COC [S-metolachlor], the “Raw weight (g) of soybean” value ([1]; Dose 75 g/ha) is reported as 27.1 g and the “Total weight (g) of soybean seeds” value ([2]; Dose 750 g/ha) is reported as 12.7 g.

In the case of COC[C@H](C)N(C(=O)CCl)c1c(C)csc1C [dimethenamid-P], the “Raw weight (g) of soybean” value ([1]; Dose 150 g/ha) is reported as 28.9 g and the “Total weight (g) of soybean seeds” value ([2]; Dose 750 g/ha) is reported as 14.1 g.

In the case of CSc1nnc(C(C)(C)C)c(=O)n1N [metribuzin], the inhibition at 137.5 g/ha ([3]; Lolium multiflorum, Dose 137.5 g/ha, read-out: Growth inhibition rate (%) Measured value) is reported as 20%, the inhibition at 275 g/ha ([3]; Lolium multiflorum, Dose 275 g/ha, read-out: Growth inhibition rate (%) Measured value) is reported as 30% and the inhibition at 550 g/ha ([3]; Lolium multiflorum, Dose 550 g/ha, read-out: Growth inhibition rate (%) Measured value) is reported as 30%. The “Raw weight (g) of soybean” value ([1]; Dose 150 g/ha) was 16.1 g and the “Total weight (g) of soybean seeds” value ([2]; Dose 18.75 g/ha) was 14.2 g.

In the case of CCOCCN(C(=O)CCl)C(=C(C)C)c1ccccc1 [pethoxamid], the “Raw weight (g) of forage corn” value ([4]; Dose 93.8 g/ha) is reported as 3.4 g, the “Raw weight (g) of forage corn” value ([4]; Dose 375 g/ha) is reported as 2.2 g and the “Raw weight (g) of forage corn” value ([4]; Dose 750 g/ha) is reported as 3.6 g. For the same compound, the “Raw weight (g) of soybean” value ([1]; Dose 200 g/ha) was 26.7 g and the “Total weight (g) of soybean seeds” value ([2]; Dose 750 g/ha) was 11.0 g.

Cn1nc(C(F)(F)F)c(CS(=O)(=O)C2=NOC(C)(C)C2)c1OC(F)F [pyroxasulfone] was tested, and the inhibition at 7.5 g/ha ([3]; Lolium multiflorum, Dose 7.5 g/ha, read-out: Growth inhibition rate (%) Measured value) was 0%, the inhibition at 15 g/ha ([3]; Lolium multiflorum, Dose 15 g/ha, read-out: Growth inhibition rate (%) Measured value) was 3% and the inhibition at 62.5 g/ha ([3]; Lolium multiflorum, Dose 62.5 g/ha, read-out: Growth inhibition rate (%) Measured value) was 8%. For the same compound, the inhibition at 125 g/ha ([3]; Lolium multiflorum, Dose 125 g/ha, read-out: Growth inhibition rate (%) Measured value) was 17%, the inhibition at 250 g/ha ([3]; Lolium multiflorum, Dose 250 g/ha, read-out: Growth inhibition rate (%) Measured value) was 23% and the “Raw weight (g) of soybean” value ([1]; Dose 37.5 g/ha) was 30.0 g. The “Total weight (g) of soybean seeds” value ([2]; Dose 125 g/ha) was 15.6 g.

For COC(=O)CCNC(=O)C(C)Sc1cc(-n2c(=O)cc(C(F)(F)F)n(C)c2=O)c(F)cc1Cl (stereo not drawn) [tiafenacil], the “Raw weight (g) of forage corn” value ([4]; Dose 6.25 g/ha) was 3.9 g, the “Growth inhibition rate (%) Measured value” ([3]; Dose 3.13 g/ha) was 17% and the “Growth inhibition rate (%) Measured value” ([3]; Dose 6.25 g/ha) was 33%. The “Growth inhibition rate (%) Measured value” ([3]; Dose 12.5 g/ha) was 60%, the “Raw weight (g) of soybean” value ([1]; Dose 3 g/ha) was 28.3 g and the “Total weight (g) of soybean seeds” value ([2]; Dose 12.5 g/ha) was 14.3 g.

With CC(C)N(C(=O)SCC(Cl)=C(Cl)Cl)C(C)C [tri-allate] the “Raw weight (g) of forage corn” value ([4]; Dose 75 g/ha) was 2.6 g, the “Raw weight (g) of forage corn” value ([4]; Dose 625 g/ha) was 2.2 g and the “Raw weight (g) of forage corn” value ([4]; Dose 1250 g/ha) was 2.5 g. It also gave an inhibition at 75 g/ha ([3]; Lolium multiflorum, Dose 75 g/ha, read-out: Growth inhibition rate (%) Measured value) of 0%, an inhibition at 150 g/ha ([3]; Lolium multiflorum, Dose 150 g/ha, read-out: Growth inhibition rate (%) Measured value) of 0% and an inhibition at 625 g/ha ([3]; Lolium multiflorum, Dose 625 g/ha, read-out: Growth inhibition rate (%) Measured value) of 2%. The inhibition at 1250 g/ha ([3]; Lolium multiflorum, Dose 1250 g/ha, read-out: Growth inhibition rate (%) Measured value) was 5%, the “Raw weight (g) of soybean” value ([1]; Dose 200 g/ha) was 18.2 g and the “Total weight (g) of soybean seeds” value ([2]; Dose 625 g/ha) was 17.0 g.
